Patent US12251411B2, “Methods of treating endometrial cancer using hemp extract” (Ecofibre USA Inc., priority 2021, dated 2025)
Like-named read-outs stand apart in the source and are kept apart here.

How the values were obtained:
[1] = system: patient derived organoids; test: Calculated IC50 of various agents on organoids derived from the chemoresistant patient (PD3D cell culture); type: cell-based, human; settings: organoids of the chemoresistant stage IV patient
Description: The IC50 values were calculated from such tests. This value indicates the dosage at which 50% of the organoids were killed due to treatment.

[2] = cited from earlier work
[3] = system: patient derived organoids; type: cell-based, human; settings: % of cells that died compared to control; organoids of the chemoresistant patient
Description: In addition to the agents listed above, several other drugs were tested to see if they influenced organoid growth. In this case, results are shown as the % of cells that died compared to control. […] This is consistent with the patient's actual lack of response to treatment with paclitaxel.

[4] = system: patient derived endometrial cancer organoids; test: Patient-derived endometrial cancer organoid viability: chemotherapeutic agent alone or with IC50 dose of cannabis extract; settings: patient 4
Description: To perform these experiments, we used cells from patient 4 (see, e.g., FIGS. 7A and 7C) to test grade 2 endometrial cancer and cells from patient 12 (see, e.g., FIGS. 7B-7D) to test grade 3 endometrial cancer. […] Methods concerning producing organoids from human tissue samples are provided in the Methods section at the end of this document.
Individual patient cell organoids were cultured separately in different plates.
The same IC50 dose was given with each incremental dose of chemotherapeutic agent.

Structure (SMILES) | Cmax ([2]; in vivo) [µM] | Calculated IC50 PD3D Cell Culture [1] | % Cell Death [3] | other results
C[C@H]1[C@H](OC(=O)CCC(=O)O)O[C@@H]2O[C@@]3(C)CC[C@H]4[C@H](C)CC[C@@H]1[C@@]24OO3 [Artesunate] | 8.58 |  |  | IC50 ([1]; Homo sapiens): 38.4 µM
O=C1O[C@H]([C@@H](O)CO)C(O)=C1O [Ascorbic Acid] | 436 | Not Reached |  | 
CO[C@H]1C(=O)[C@]2(C)[C@@H](OC)C[C@H]3OC[C@@]3(OC(C)=O)[C@H]2[C@H](OC(=O)c2ccccc2)[C@]2(O)C[C@H](OC(=O)[C@H](O)[C@@H](NC(=O)OC(C)(C)C)c3ccccc3)C(C)=C1C2(C)C [Cabazitaxel] |  |  | 37% | 
CCCCCOC(=O)Nc1nc(=O)n([C@@H]2O[C@H](C)[C@@H](O)[C@H]2O)cc1F [Capecitabine (5-FU)] |  | Not Reached | 61% | 
N.N.O=C([O-])C1(C(=O)[O-])CCC1.[Pt+2] [Carboplatin] |  |  | 30% | reduction of viable organoids ([4]; carboplatin alone 50 μM/mL): about 50%; decrease in viability as compared to 50 μM/mL ([4]; carboplatin alone 100 μM/mL): 2%; decrease in viability from that achieved at 50 μM/mL ([4]; carboplatin alone 250 μM/mL): 17%; organoid viability ([4]; carboplatin alone 250 μM/mL): about 32%
N.N.[Cl][Pt][Cl] [Cisplatin] | 3.62 |  | 36% | IC50 [1]: 5.05 µM
O=C(c1ccc(F)c(F)c1Nc1ccc(I)cc1F)N1CC(O)([C@@H]2CCCCN2)C1 [Cobimetinib] |  | Not Reached |  | Cmax [2]: 0.514 µM
COc1cc2c(c(OC)c1OC)-c1ccc(OC)c(=O)cc1[C@@H](NC(C)=O)CC2 [Colchicine] | 0.006 |  |  | 
C[C@@H](Oc1cc(-c2cnn(C3CCNCC3)c2)cnc1N)c1c(Cl)ccc(F)c1Cl [Crizotinib] | 0.23 | Not Reached |  | 
O=P1(N(CCCl)CCCl)NCCCO1 (centres unmarked) [Cyclosphosphamide] |  |  | 32% | 
CN(C)/N=N/c1[nH]cnc1C(N)=O [Dacarbazine] |  |  | 32% | 
O=C(O)C(Cl)Cl [Dichloracetate] | 330 | Not Reached |  | 
CC(=O)O[C@@]12CO[C@@H]1C[C@H](O)[C@@]1(C)C(=O)[C@H](O)C3=C(C)[C@@H](OC(=O)[C@H](O)[C@@H](NC(=O)OC(C)(C)C)c4ccccc4)C[C@@](O)([C@@H](OC(=O)c4ccccc4)[C@H]21)C3(C)C [Docetaxel] |  |  | No Response | 
COc1cccc2c1C(=O)c1c(O)c3c(c(O)c1C2=O)C[C@@](O)(C(=O)CO)C[C@@H]3O[C@H]1C[C@H](N)[C@H](O)[C@H](C)O1 [Doxorubicin] |  |  | 39% | 
COc1cc([C@@H]2c3cc4c(cc3[C@@H](O[C@@H]3O[C@@H]5CO[C@@H](C)O[C@H]5[C@H](O)[C@H]3O)[C@H]3COC(=O)[C@H]23)OCO4)cc(OC)c1O [Etoposide] |  |  | 33% | IC50 ([1]; Homo sapiens, unit inferred): 87.3 µM; Cmax [2]: 33.9 µM
Nc1ccn([C@@H]2O[C@H](CO)[C@@H](O)C2(F)F)c(=O)n1 [Gemcitabine] |  |  | 56% | 
N[C@@H](CCC(=O)N[C@@H](CS)C(=O)NCC(=O)O)C(=O)O [Glutathione] | 150 | Not Reached |  | 
CCN(CCO)CCCC(C)Nc1ccnc2cc(Cl)ccc12 (centres unmarked) [Hydroxychloroquine] | 0.12 | Not Reached |  | 
CCc1c2c(nc3ccc(OC(=O)N4CCC(N5CCCCC5)CC4)cc13)-c1cc3c(c(=O)n1C2)COC(=O)[C@]3(O)CC [Irinotecan] |  |  | 51% | 
COc1cc2nccc(Oc3ccc(NC(=O)NC4CC4)c(Cl)c3)c2cc1C(N)=O [Lenvatinib] |  | Not Reached |  | Cmax [2]: 1 µM
N[C@@H](Cc1ccc(N(CCCl)CCCl)cc1)C(=O)O [Melphalan] |  |  | 40% | 
CN(C)C(=N)N=C(N)N [Metformin] | 10.8 | Not Reached |  | 
O=C1c2c(O)ccc(O)c2C(=O)c2c(NCCNCCO)ccc(NCCNCCO)c21 [Mitoxantrone] |  |  | 50% | 
